Experimental findings from US10144732B2 (BIOGEN MA INC., priority 2014, dated 2018) are described below.

Where “and” joins values, the source holds several entries; their conditions need not be identical. Equal values may be shown once. Where a name gives a salt, the structure may show the parent alone. A value given as a limit tells only on which side of the number the result lay.

The experiment has as its target T1, Human ATX protein (Homo sapiens, UniProt Q13822).
T1 construct: made in house
Put plainly: ATX biochemical assay (FRET, FS-3 substrate). The settings on record: FRET assay, FS-3 2 μM, ATX 1.0 μg/mL, 30 minutes preincubation, 2 hours reaction at room temperature; read-out: IC50. Summed up:
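FRET read-out: cleavage of FS-3 (2 μM final) unquenches fluorescein, measured at 485/538 nm after 2 h at room temperature. Before substrate addition, in-house-expressed human autotaxin (1.0 μg/mL) sat with compound for 30 min in pH 7.4 Tris/NaCl/KCl/CaCl2/MgCl2 buffer containing fatty acid free-BSA at 1 mg/mL.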
Consider `NC(=O)[C@H]1CC[C@@H](CC(=O)N2CCc3c(C(F)(F)F)nn(Cc4ccc(F)cc4)c3C2)CC1` [Example 20-1, cis-4-(2-(1-(4-Fluorobenzyl)-3-(trifluoromethyl)-4,5-dihydro-1H-pyrazolo[3,4-c]pyridin-6(7H)-yl)-2-oxoethyl)cyclohexanecarboxamide], for which the IC50 (usually the point on the concentration scale where inhibition reaches its midpoint) was no more than 100 nM.
Take `O=C(O)C1CCCN(CC(=O)N2CCc3c(C(F)(F)F)nn(Cc4ccc(Cl)cc4F)c3C2)CC1` (stereo not drawn) [Example 13-20, 1-(2-(1-(4-Chloro-2-fluorobenzyl)-3-(trifluoromethyl)-4,5-dihydro-1H-pyrazolo[3,4-c]pyridin-6(7H)-yl)-2-oxoethyl)azepane-4-carboxylic acid TFA salt]: the IC50 is no more than 100 nM.
In the case of `CC(C)N1CCCC(CC(=O)N2CCc3c(C(F)(F)F)nn(Cc4ccc(F)cc4)c3C2)C1` (stereo not drawn) [Example 11-4, 1-(1-(4-Fluorobenzyl)-3-(trifluoromethyl)-4,5-dihydro-1H-pyrazolo[3,4-c]pyridin-6(7H)-yl)-2-(1-isopropylpiperidin-3-yl)ethanone formate] it was no more than 100 nM; in that of `O=C(CC12CCC(C(=O)O)(CC1)C2)N1CCc2c(C(F)(F)F)nn(Cc3ccc(Cl)cc3F)c2C1` [Example 5-52, 4-(2-(1-(4-Chloro-2-fluorobenzyl)-3-(trifluoromethyl)-4,5-dihydro-1H-pyrazolo[3,4-c]pyridin-6(7H)-yl)-2-oxoethyl)bicyclo[2.2.1]heptane-1-carboxylic acid], no more than 100 nM; in that of `O=C(O)C[C@H]1CC[C@H](CC(=O)N2CCc3c(C(F)(F)F)nn(Cc4ccc(F)cc4)c3C2)CC1` [Example 5-48, 2-(trans-4-(2-(1-(4-Fluorobenzyl)-3-(trifluoromethyl)-4,5-dihydro-1H-pyrazolo[3,4-c]pyridin-6(7H)-yl)-2-oxoethyl)cyclohexyl)acetic acid], no more than 100 nM.
In the case of `O=C(O)CCC(=O)N1CCc2c(C(F)(F)F)nn(Cc3ccc(Cl)cc3F)c2C1` [Example 14-3, 4-(1-(4-Chloro-2-fluorobenzyl)-3-(trifluoromethyl)-4,5-dihydro-1H-pyrazolo[3,4-c]pyridin-6(7H)-yl)-4-oxobutanoic acid] it was no more than 100 nM; in that of `O=C(O)CCN1CCC(C(=O)N2CCc3c(C(F)(F)F)nn(Cc4ccc(Cl)cc4F)c3C2)C1` (stereo not drawn) [Example 15-3, 3-(3-(1-(4-chloro-2-fluorobenzyl)-3-(trifluoromethyl)-4,5,6,7-tetrahydro-1H-pyrazolo[3,4-c]pyridine-6-carbonyl)pyrrolidin-1-yl)propanoic acid], greater than 10000 nM; in that of `O=C(C[C@H]1CC[C@@H](C(=O)O)CC1)N1CCc2c(C(F)(F)F)nn(Cc3ccc(Cl)cc3)c2C1` [Example 7-6, cis-4-(2-(1-(4-chlorobenzyl)-3-(trifluoromethyl)-4,5-dihydro-1H-pyrazolo[3,4-c]pyridin-6(7H)-yl)-2-oxoethyl)cyclohexanecarboxylic acid], no more than 100 nM.
Turning to `O=C(CN1CCC(C(F)(F)F)CC1)N1CCc2c(C(F)(F)F)nn(Cc3ccc(F)cc3)c2C1` [Example 12-15, 1-(1-(4-Fluorobenzyl)-3-(trifluoromethyl)-4,5-dihydro-1H-pyrazolo[3,4-c]pyridin-6(7H)-yl)-2-(4-(trifluoromethyl)piperidin-1-yl)ethanone], the IC50 was no more than 100 nM.
In the case of `O=C(C[C@H]1CC[C@H](C(=O)O)CC1)N1CCc2c(C3CC3)nn(Cc3ccc(F)cc3)c2C1` [Example 5-38, trans-4-(2-(3-Cyclopropyl-1-(4-fluorobenzyl)-4,5-dihydro-1H-pyrazolo[3,4-c]pyridin-6(7H)-yl)-2-oxoethyl)cyclohexanecarboxylic acid] it was no more than 100 nM; in that of `CCOC(=O)c1nn(Cc2ccc(F)cc2)c2c1CCN(C(=O)C[C@H]1CC[C@H](C(=O)OCC)CC1)C2` [Example 1-40, Ethyl 6-(2-(trans-4-(ethoxycarbonyl)cyclohexyl)acetyl)-1-(4-fluorobenzyl)-4,5,6,7-tetrahydro-1H-pyrazolo[3,4-c]pyridine-3-carboxylate], > 500 nM and ≤ 10000 nM; in that of `O=C(C[C@H]1CC[C@H](C(=O)O)CC1)N1CCc2c(C(F)(F)F)nn(Cc3cncs3)c2C1` [Example 5-28, trans-4-(2-Oxo-2-(1-(thiazol-5-ylmethyl)-3-(trifluoromethyl)-4,5-dihydro-1H-pyrazolo[3,4-c]pyridin-6(7H)-yl)ethyl)cyclohexanecarboxylic acid], no more than 100 nM.
As to `O=C(CC1CCCNC1)N1CCc2c(C(F)(F)F)nn(Cc3ccc(F)cc3)c2C1` (stereo not drawn) [Example 9-4, 1-(1-(4-Fluorobenzyl)-3-(trifluoromethyl)-4,5-dihydro-1H-pyrazolo[3,4-c]pyridin-6(7H)-yl)-2-(piperidin-3-yl)ethanone HCl salt], the IC50 is no more than 100 nM.
The same measure for `N#CC1CN(CC(=O)N2CCc3c(C(F)(F)F)nn(Cc4ccc(F)cc4)c3C2)C1` [Example 12-12, 1-(2-(1-(4-Fluorobenzyl)-3-(trifluoromethyl)-4,5-dihydro-1H-pyrazolo[3,4-c]pyridin-6(7H)-yl)-2-oxoethyl)azetidine-3-carbonitrile TFA salt]: no more than 100 nM; for `O=C(Cc1ccncc1)N1CCc2c(C(F)(F)F)nn(Cc3ccc(Cl)cc3F)c2C1` [Example 1-7, 1-(1-(4-Chloro-2-fluorobenzyl)-3-(trifluoromethyl)-4,5-dihydro-1H-pyrazolo[3,4-c]pyridin-6(7H)-yl)-2-(pyridin-4-yl)ethanone]: greater than 10000 nM.
For the compound `O=C(CC1CCC(N2CCCC2)CC1)N1CCc2c(C(F)(F)F)nn(Cc3ccc(F)cc3)c2C1` (stereo not drawn) [Example 22-9, 1-(1-(4-Fluorobenzyl)-3-(trifluoromethyl)-4,5-dihydro-1H-pyrazolo[3,4-c]pyridin-6(7H)-yl)-2-(4-(pyrrolidin-1-yl)cyclohexyl)ethanone TFA salt], the IC50 was no more than 100 nM.
The same measure for `O=C(CC1CCNC1)N1CCc2c(C(F)(F)F)nn(Cc3ccc(F)cc3)c2C1` (stereo not drawn) [Example 9-23, 1-(1-(4-Fluorobenzyl)-3-(trifluoromethyl)-4,5-dihydro-1H-pyrazolo[3,4-c]pyridin-6(7H)-yl)-2-(pyrrolidin-3-yl)ethanone hydrochloride]: no more than 100 nM; for `CCOC(=O)C1CCC(CC(=O)N2CCc3c(C(F)(F)F)nn(CC4CCCCC4)c3C2)CC1` (stereo not drawn) [Example 1-16, Ethyl 4-(2-(1-(cyclohexylmethyl)-3-(trifluoromethyl)-4,5-dihydro-1H-pyrazolo[3,4-c]pyridin-6(7H)-yl)-2-oxoethyl)cyclohexanecarboxylate]: no more than 100 nM.
